Measurements reported in ChEMBL document CHEMBL1123738, “Kinetics of solvolysis and muscarinic actions of an N-methyl-N-(2-bromoethyl)amino analogue of oxotremorine” (J Med Chem, 1987).

Tests used:
[1] = Rate of cyclization, as measured by rate of formation of compound at 22 degree Centigrade; format: ADME
[2] = Rate of hydrolysis of compound at pH 7.3 and 22 degree Centigrade; format: ADME; conditions: buffer
[3] = Rate of cyclization, as measured by rate of formation of compound at 37 degree Centigrade; format: ADME
[4] = Rate of hydrolysis of compound at pH 7.3 and 37 degree Centigrade; format: ADME; conditions: buffer
[5] = Apparent first-order rate constant for bromide ion release at 37 degree Celsius and pH 7.3; format: ADME
[6] = Half-life of compound at 22 degree Celsius and pH 5.46 was determined; format: ADME
[7] = Rate of cyclization of compound at 22 degree Celsius and pH 7.67; format: ADME
[8] = Rate of cyclization of compound at 22 degree Centigrade and pH 6.25; format: ADME
[9] = First-order rate constant for cyclization of the free base; format: ADME
[10] = Rate of cyclization of compound at 22 degree Celsius and pH 7.29; format: ADME
[11] = Rate of cyclization of compound at 22 degree Celsius and pH 5.46; format: ADME
[12] = Half-life of compound at 22 degree Celsius and pH 7.29 was determined; format: ADME
[13] = pKa value of compound was determined; format: physicochemical
[14] = Half-life of compound at 22 degree Centigrade and pH 7.67 was determined; format: ADME
[15] = Half-life of compound at 22 degree Celsius and pH 6.25 was determined; format: ADME
[16] = Equipotent potent ratio relative to carbachol (nicotinic activity); format: ADME
[17] = Half-life of compound at 22 degree Celsius and pH 4.24 was determined; format: ADME
[18] = Rate of cyclization of compound at 22 degree Celsius and pH 4.24; format: ADME

SMILES | k1 [1] | k2 [2] | k1 [3] | k2 [4] | Rate constant [5] | half-life [6] | k1 [7] | k1 [8] | k0 [9] | k1 [10] | k1 [11] | half-life [12] | pKa [13] | half-life [14] | half-life [15] | Molar ratio [16] | half-life [17] | k1 [18]
C[N+]1(CC#CCN2CCCC2=O)CC1.[Br-] | 0.145 min⁻¹ | 0.00829 min⁻¹ | 0.845 min⁻¹ | 0.0395 min⁻¹ |  |  |  |  |  |  |  |  |  |  |  |  |  | 
CN(CC#CCN1CCCC1=O)CCBr |  |  |  |  | 0.85 min⁻¹ | 10.2 min | 0.1512 min⁻¹ | 0.1146 min⁻¹ | 0.146 min⁻¹ | 0.1406 min⁻¹ | 0.0678 min⁻¹ | 4.9 min | 5.6 | 4.6 min | 6.1 min | 12.3 | 261 min | 0.00266 min⁻¹
